Experimental data taken from patent publication US20260297080A1, “BICYCLIC COMPOUNDS AS CDK INHIBITORS” (BeOne Medicines I GmbH, priority 2022, published 2026).

Assays:
CDK2/Cyclin E1 = CDK2/Cyclin E1 (Homo sapiens, UniProt P24941); assay: CDK2/Cyclin E1 Biochemical Assay (TR-FRET), 1 mM ATP; details: 0.15 μM Rb (Ser780)-biotin substrate, pH7.0, 60 min preincubation, 90 min reaction, room temperature
Experimental: (§1) CDK2/Cyclin E1 and CDK1/Cyclin B1 Biochemical Assays
(§2) Compounds disclosed herein were tested for inhibition of CDK2/Cyclin E1 or CDK1/Cyclin B1 kinase in an assay based on the time-resolved fluorescence-resonance energy transfer (TR-FRET) methodology. The assay was carried out in 384-well low volume black plates in a reaction mixture containing CDK2/Cyclin E1 or CDK1/Cyclin B1, 1 mM ATP for CDK2/Cyclin E1 and CDK1/Cyclin B1, 0.15 μM Rb (Ser780)-biotin substrate and 0-10 μM compound in buffer containing 50 mM HEPES pH7.0, 0.02% NaN3, 0.01% BSA, 0.1 mM Orthovanadate, 50 mM MgCl2, 1 mM DTT and 0.005% Tween-20. The kinase was incubated with compound for 60 minutes at room temperature and the reaction was initiated by the addition of ATP and Rb (Ser780)-biotin substrate. After reaction at room temperature for 90 minutes, an equal volume of stop/detection solution was added according to the manufacture's instruction (Cisbio Bioassays). The stop/detection solution contained Streptavidin-XL665 and Anti-pRb (Ser780) mAb-Eu Cryptate in Detection buffer (Cisbio Bioassays). Plates were incubated at room temperature for 60 minutes, and the TR-FRET signals (ex337 nm, em665 nm/620 nm) were recorded on a PHERAstar FSX plate reader (BMG Labtech). The inhibition percentage of CDK2/Cyclin E1 or CDK1/Cyclin B1 kinase activity in presence of increasing concentrations of compounds was calculated based on the ratio of fluorescence at 665 nm to that at 620 nm. The IC50 for each compound was derived from fitting the data to the four-parameter logistic equation by Dotmatics.

CDK1/Cyclin B1 = CDK1/Cyclin B1 (Homo sapiens, UniProt P06493); assay: CDK1/Cyclin B1 Biochemical Assay (TR-FRET), 1 mM ATP; details: 0.15 μM Rb (Ser780)-biotin substrate, pH7.0, 60 min preincubation, 90 min reaction, room temperature
Experimental: as §1, §2

Sequence of CDK1/Cyclin B1 (P06493 whole entry): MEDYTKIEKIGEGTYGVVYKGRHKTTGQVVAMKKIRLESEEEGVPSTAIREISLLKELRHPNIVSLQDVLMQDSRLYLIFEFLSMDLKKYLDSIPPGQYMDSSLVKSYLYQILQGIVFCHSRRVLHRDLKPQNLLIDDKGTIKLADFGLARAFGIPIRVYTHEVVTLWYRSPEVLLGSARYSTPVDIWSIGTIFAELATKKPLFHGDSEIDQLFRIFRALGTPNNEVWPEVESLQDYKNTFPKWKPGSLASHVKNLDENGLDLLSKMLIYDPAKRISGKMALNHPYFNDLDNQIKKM
Sequence of CDK1/Cyclin B1 (P14635 whole entry partner): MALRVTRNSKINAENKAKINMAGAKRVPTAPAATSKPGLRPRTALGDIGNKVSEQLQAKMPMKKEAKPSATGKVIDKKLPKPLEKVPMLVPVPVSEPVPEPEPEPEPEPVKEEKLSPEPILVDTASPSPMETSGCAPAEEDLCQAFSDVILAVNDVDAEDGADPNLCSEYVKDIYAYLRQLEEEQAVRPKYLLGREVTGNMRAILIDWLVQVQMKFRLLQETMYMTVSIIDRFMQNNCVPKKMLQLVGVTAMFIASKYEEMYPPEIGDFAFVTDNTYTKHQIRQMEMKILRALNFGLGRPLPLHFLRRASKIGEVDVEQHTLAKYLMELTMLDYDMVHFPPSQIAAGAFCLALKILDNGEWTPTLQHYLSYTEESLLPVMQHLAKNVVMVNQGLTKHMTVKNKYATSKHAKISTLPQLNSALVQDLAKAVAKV

Row | SMILES | IC50 (CDK2/Cyclin E1) | IC50 (CDK1/Cyclin B1)
1 | CN(C(=O)O[C@H]1CC[C@@H](c2cc(Nc3cc4c(cc3F)S(=O)(=O)NC4)n[nH]2)C1)C1CCOC1 (relative stereo) [Example 440, cis-3-(3-((6-fluoro-1,1-dioxido-2,3-dihydrobenzo[d]isothiazol-5-yl)amino)-1H-pyrazol-5-yl)cyclopentyl methyl(tetrahydrofuran-3-yl)carbamate] | 189 nM | > 10000 nM
2 | CC(C)(CO)NC(=O)O[C@H]1CC[C@@H](c2cc(Nc3ccc4c(c3F)CS(=O)(=O)N4C3CC3)n[nH]2)C1 (single isomer, unassigned) [Example 363a, cis-3-(3-((1-cyclopropyl-4-fluoro-2,2-dioxido-1,3-dihydrobenzo[c]isothiazol-5-yl)amino)-1H-pyrazol-5-yl)cyclopentyl(1-hydroxy-2-methylpropan-2-yl)carbamate] | 2.2 nM | 2420 nM
3 | CN(C(=O)O[C@H]1CC[C@@H](c2cc(Nc3ccc4c(c3F)CS(=O)(=O)N4)n[nH]2)C1)C1CCOC1 (relative stereo) [Example 441, cis-3-(3-((4-fluoro-2,2-dioxido-1,3-dihydrobenzo[c]isothiazol-5-yl)amino)-1H-pyrazol-5-yl)cyclopentyl methyl(tetrahydrofuran-3-yl)carbamate] | 47 nM | 5060 nM
4 | O=C(NC12CC(C1)C2)O[C@H]1CC[C@@H](c2cc(Nc3cc4c(cc3F)S(=O)(=O)NC4)n[nH]2)C1 (single isomer, unassigned) [Example 422a, cis-3-(3-((6-fluoro-1,1-dioxido-2,3-dihydrobenzo[d]isothiazol-5-yl)amino)-1H-pyrazol-5-yl)cyclopentyl bicyclo[1.1.1]pentan-1-ylcarbamate] | 2.3 nM | 3250 nM
5 | O=C(NC1CC1)O[C@H]1CC[C@@H](c2cc(Nc3ccc4c(c3F)CS(=O)(=O)N4)n[nH]2)C1 (relative stereo) [Example 459, cis-3-(3-((4-fluoro-2,2-dioxido-1,3-dihydrobenzo[c]isothiazol-5-yl)amino)-1H-pyrazol-5-yl)cyclopentyl cyclopropylcarbamate] | 6 nM | 1970 nM
6 | CC(C)(C)NC(=O)O[C@H]1CC[C@@H](c2cc(Nc3ccc4c(c3F)CS(=O)(=O)N4)n[nH]2)C1 (relative stereo) [Example 423, cis-3-(3-((4-fluoro-2,2-dioxido-1,3-dihydrobenzo[c]isothiazol-5-yl)amino)-1H-pyrazol-5-yl)cyclopentyl tert-butylcarbamate] | 2.7 nM | 252 nM
7 | CC(C)(CO)NC(=O)O[C@H]1CC[C@@H](c2cc(Nc3ccc4c(c3F)CS(=O)(=O)N4)n[nH]2)C1 (relative stereo) [Example 443, cis-3-(3-((4-fluoro-2,2-dioxido-1,3-dihydrobenzo[c]isothiazol-5-yl)amino)-1H-pyrazol-5-yl)cyclopentyl(1-hydroxy-2-methylpropan-2-yl)carbamate] | 1.6 nM | 582 nM
8 | CC(C)NC(=O)O[C@H]1CC[C@@H](c2cc(Nc3cc4c(cn3)S(=O)(=O)NC4)n[nH]2)C1 (relative stereo) [Example 425, cis-3-(3-((1,1-dioxido-2,3-dihydroisothiazolo[5,4-c]pyridin-5-yl)amino)-1H-pyrazol-5-yl)cyclopentyl isopropylcarbamate] | 1950 nM | > 10000 nM
9 | CC1(NC(=O)O[C@H]2CC[C@@H](c3cc(Nc4ccc5c(c4F)CCS(=O)(=O)N5)n[nH]3)C2)CC1 (relative stereo) [Example 462, cis-3-(3-((5-fluoro-2,2-dioxido-3,4-dihydro-1H-benzo[c][1,2]thiazin-6-yl)amino)-1H-pyrazol-5-yl)cyclopentyl(1-methylcyclopropyl)carbamate] | 0.7 nM | 349 nM
10 | O=C(NCC1CC1)O[C@H]1CC[C@@H](c2cc(Nc3cc4c(cc3F)S(=O)(=O)NC4)n[nH]2)C1 (relative stereo) [Example 420, cis-3-(3-((6-fluoro-1,1-dioxido-2,3-dihydrobenzo[d]isothiazol-5-yl)amino)-1H-pyrazol-5-yl)cyclopentyl(cyclopropylmethyl)carbamate] | 24 nM | 5510 nM
11 | CC(C)NC(=O)O[C@H]1CC[C@@H](c2cc(Nc3ccc4c(c3F)CS(=O)(=O)N4CC(C)(C)O)n[nH]2)C1 (single isomer, unassigned) [Example 254a, cis-3-(3-((4-fluoro-1-(2-hydroxy-2-methylpropyl)-2,2-dioxido-1,3-dihydrobenzo[c]isothiazol-5-yl)amino)-1H-pyrazol-5-yl)cyclopentyl isopropylcarbamate] | 12 nM | 3740 nM
12 | CCNC(=O)O[C@H]1CC[C@@H](c2cc(Nc3cc4c(cc3F)S(=O)(=O)NC4)n[nH]2)C1 (relative stereo) [Example 421, cis-3-(3-((6-fluoro-1,1-dioxido-2,3-dihydrobenzo[d]isothiazol-5-yl)amino)-1H-pyrazol-5-yl)cyclopentyl ethylcarbamate] | 135 nM | > 10000 nM

Continued by falling IC50 (CDK2/Cyclin E1), values first:

Row | IC50 (CDK2/Cyclin E1) | IC50 (CDK1/Cyclin B1) | SMILES
13 | 249 nM | > 10000 nM | CN(C(=O)O[C@H]1CC[C@@H](c2cc(Nc3ccc4c(c3F)CNS4(=O)=O)n[nH]2)C1)C1CCOC1 (relative stereo) [Example 437, cis-3-(3-((4-fluoro-1,1-dioxido-2,3-dihydrobenzo[d]isothiazol-5-yl)amino)-1H-pyrazol-5-yl)cyclopentyl methyl(tetrahydrofuran-3-yl)carbamate]
14 | 51 nM | 4870 nM | CN1c2ccc(Nc3cc([C@@H]4CC[C@H](OC(=O)NCC5(O)CC5)C4)[nH]n3)cc2CS1(=O)=O (relative stereo) [Example 426, cis-3-(3-((1-methyl-2,2-dioxido-1,3-dihydrobenzo[c]isothiazol-5-yl)amino)-1H-pyrazol-5-yl)cyclopentyl((1-hydroxycyclopropyl)methyl)carbamate]
15 | 18 nM | 1450 nM | CCCNC(=O)O[C@H]1CC[C@@H](c2cc(Nc3ccc4c(c3F)CS(=O)(=O)N4CC(C)(C)O)n[nH]2)C1 [Example 433b]
16 | 14 nM | 8020 nM | CC(C)(CO)NC(=O)O[C@H]1CC[C@@H](c2cc(Nc3ccc4c(c3F)CN(C3CC3)S4(=O)=O)n[nH]2)C1 (single isomer, unassigned) [Example 359a, cis-3-(3-((2-cyclopropyl-4-fluoro-1,1-dioxido-2,3-dihydrobenzo[d]isothiazol-5-yl)amino)-1H-pyrazol-5-yl)cyclopentyl(1-hydroxy-2-methylpropan-2-yl)carbamate]
17 | 4.1 nM | 1190 nM | CC1(C)CCN1C(=O)O[C@H]1CC[C@@H](c2cc(Nc3cc4c(cc3F)S(=O)(=O)NC4)n[nH]2)C1 (relative stereo) [Example 449, cis-3-(3-((6-fluoro-1,1-dioxido-2,3-dihydrobenzo[d]isothiazol-5-yl)amino)-1H-pyrazol-5-yl)cyclopentyl 2,2-dimethylazetidine-1-carboxylate]
18 | 1.7 nM | 1400 nM | CC1(NC(=O)O[C@H]2CC[C@@H](c3cc(Nc4cc5c(cc4F)S(=O)(=O)NC5)n[nH]3)C2)CCCC1 (relative stereo) [Example 446, cis-3-(3-((6-fluoro-1,1-dioxido-2,3-dihydrobenzo[d]isothiazol-5-yl)amino)-1H-pyrazol-5-yl)cyclopentyl(1-methylcyclopentyl)carbamate]
19 | 1.1 nM | 145 nM | CC1(NC(=O)O[C@@H]2CC[C@H](c3cc(Nc4ccc5c(c4F)CS(=O)(=O)N5)n[nH]3)C2)CCC1 (single isomer, unassigned) [Example 427a]
20 | 0.5 nM | 487 nM | CN1c2ccc(Nc3cc([C@@H]4CC[C@H](OC(=O)NC56CC(C5)C6)C4)[nH]n3)c(F)c2CS1(=O)=O (relative stereo) [Example 452, cis-3-(3-((4-fluoro-1-methyl-2,2-dioxido-1,3-dihydrobenzo[c]isothiazol-5-yl)amino)-1H-pyrazol-5-yl)cyclopentyl bicyclo[1.1.1]pentan-1-ylcarbamate]
21 | 0.4 nM | 140 nM | CC(C)(C)NC(=O)O[C@H]1CC[C@@H](c2cc(Nc3ccc4c(c3F)CCS(=O)(=O)N4)n[nH]2)C1 [Example 463, (1S,3R)-3-(3-((5-fluoro-2,2-dioxido-3,4-dihydro-1H-benzo[c][1,2]thiazin-6-yl)amino)-1H-pyrazol-5-yl)cyclopentyl tert-butylcarbamate]
22 | 0.3 nM | 271 nM | CC[C@H](C)NC(=O)O[C@H]1CC[C@@H](c2cc(Nc3ccc4c(c3F)CCS(=O)(=O)N4)n[nH]2)C1 (relative stereo) [Example 461, cis-3-(3-((5-fluoro-2,2-dioxido-3,4-dihydro-1H-benzo[c][1,2]thiazin-6-yl)amino)-1H-pyrazol-5-yl)cyclopentyl((S)-sec-butyl)carbamate]
